Values quoted from earlier work as cited in patent US8293845B2, “Irritation mitigating polymers and uses therefor” (priority 2006, dated 2012).

Details: from Schoenberg, Household & Personal Products Industry 1979

Question: Which eye irritation does the source give for CCCCCCCCCCCCOS(=O)(=O)[O-].[Na+] [sodium lauryl sulfate] here?
Answer: The eye irritation was “causes significant eye irritation”.
